Data published in patent publication EP1462117A1, “Method for in vivo detection of antipsychotic properties of dopamine D3 receptor ligands” (priority 2003, dated 2004).
“And” between values parts separate entries of the source, which are not always exact repeats. Equal entries are not always repeated.

Legend:
MK-801-treated mice = assay: Resident-intruder assay in MK-801-treated mice; type: in vivo; details: MK-801 0.02 mg/kg/h for 7 days; compound 1 mg/kg i.p. 30 min prior testing; 5 min
Method: Male mice were housed individually or in groups of five for at least 1 week prior to minipump implantation (Day 0), delivering MK-801 (0.02 mg/kg/h) or saline (Sham), and were tested at day 7. As described in Dixon et al. (1994), a group-housed male (intruder) was placed in the home cage of the individually housed male (resident), and their behaviors were video recorded for 5 min. […] The videotaped behaviors of the resident or intruder male were individually scored, by an experimenter unaware of the treatment group, for time spent in social investigation (approaching, sniffing, grooming other mouse, and sexual behavior), and in escape behavior (actively avoiding the unfamiliar congener). The scores for each behavior were subsequently averaged for each group.
(§1) Between-group differences were analyzed with the Statistica™ software using two-way analysis of variance (ANOVA) and Least Significance Difference (LSD) post-hoc test. The analysis of data obtained with the same animals evaluated on several occasions (time-course experiments), between-within univariate or multivariate ANOVA for repeated measures were used (time being the repeated measure). Data from the resident-intruder assay were analyzed by analysis of variance (ANOVA), followed by a Tukey-Kramer Multiple Comparison post-hoc test.

[1] = Plasma concentrations in monkeys (radioreceptor assay); type: in vivo
MPTP-intoxicated monkeys = assay: Levodopa-induced dyskinesia, PD-like symptoms and locomotor activity in MPTP-intoxicated monkeys
Swiss mice [2] = assay: Locomotor hyperactivity induced by continuous infusion of MK-801 (osmotic minipumps); type: in vivo
Method: Male Swiss mice (IFFA CREDO, France), weighing 26-28 g, were housed six per cage (25 × 15 ×13 cm), on a 12 h/12 h light/dark cycle (lights on at 07:00 a.m.), with food and water freely available. Room temperature ranged from 20° to 22°C and humidity varied between 55% and 65%.
Dizocilpine, as (+)-MK-801 maleate (Sigma), dissolved in 0.9% NaCl (saline), and its respective vehicle solution, was continuously infused via osmotic minipumps (Model 1007D, Alzet Corp.). Minipumps were filled 6 h prior to implantation and placed in a sterile saline water bath at 37°C. Taking into consideration the average weight of the mice at the time of testing, and the rate of the minipump delivery (specified by the manufacturer), the MK-801 concentration was adjusted to deliver 0.01 or 0.02 mg/kg/hr (0.48 mg/kg/day). Mice were anaesthetized with chloral hydrate (400 mg/kg i.p.), and an area on the back of the mice was shaved and cleaned with 70% ethanol. A small incision was made, a pocket beneath the skin was formed and the minipump was placed inside the pocket in each mouse. The incision was sutured, and cleaned with 70% ethanol. The mice were returned in their home cage and in about 2 h they had recovered and were active.
Once the minipumps implanted (Day 0), the locomotor activity was measured for 1h, at days 2, 4 and 7 in an actimeter (Imetronic, Pessac, France).
as §1

[3] = system: D3 receptor-deficient mice (D3R^-/-); assay: MK-801-induced locomotor activity in D3 receptor-deficient mice; type: in vivo; details: compound 1 mg/kg; MK-801 […]; D3R^-/- mice
Method: (§2) Male Swiss mice (Iffa Credo, France), weighing 25-30 g, were housed four per cage (25 × 15 × 13 cm), on a 12 hr/12 hr light/dark cycle (lights on at 07:00 a.m.), with food and water ad libitum. […] Experiments with D3R-deficient mice were performed on male homozygous mutant mice and their wild-type littermates. […] The mice used in the present study were backcrossed 7 to 8 times.
(§3) All experiments were conducted between 2.00 p.m. and 6.00 p.m., and the animals were kept in the test room at least 1 h before recording their activity. […] Counts for forward horizontal activity were incremented each time the animal moved from one-half part of the cage to the other, corresponding to disruption of two crossed parallel beams distant of 14 cm. In time-course studies, counts were summed every 5 min.
(§4) In addition, another experiment was performed with two groups of 8 mice of each genotype, injected with either saline or haloperidol (0.05 mg/kg).
as §1, with “measure).” for “measure). Data from the resident-intruder assay were analyzed by analysis of variance (ANOVA), followed by a Tukey-Kramer Multiple Comparison post-hoc test.”

wild-type (D3R^+/+) mice = assay: MK-801-induced locomotor activity in wild-type mice; type: in vivo
Method: Male Swiss mice (Iffa Credo, France), weighing 25-30 g, were housed four per cage (25 × 15 × 13 cm), on a 12 hr/12 hr light/dark cycle (lights on at 07:00 a.m.), with food and water ad libitum. […] Experiments with D3R-deficient mice were performed on male homozygous mutant mice and their wild-type littermates. […] Subsequently, these mice were backcrossed up to 8 times with C57BL6 mice. The mice used in the present study were backcrossed 7 to 8 times.
as §3, §4
as §1, with “measure).” for “measure). Data from the resident-intruder assay were analyzed by analysis of variance (ANOVA), followed by a Tukey-Kramer Multiple Comparison post-hoc test.”

Swiss mice [4] = assay: MK-801 (dizocilpine)-induced and spontaneous locomotor activity, acute treatment, actimeter; type: in vivo; details: for MK-801-induced hyperactivity: post-hoc vs saline
Method: as §2
Haloperidol (Janssen Pharmaceuticals, Beerse, Belgium) and clozapine (Novartis, Basel, Switzerland) were dissolved in a few drops of hydrochloric acid and distilled water, and the pH of the solution was adjusted to pH 5 to 6 using NaOH. […] The compounds were injected i.p. in a volume of 5 ml/kg.
as §3
as §1, with “measure).” for “measure). Data from the resident-intruder assay were analyzed by analysis of variance (ANOVA), followed by a Tukey-Kramer Multiple Comparison post-hoc test.”
To assess simply the in vivo biological activity of the novel compound at the D3 receptor, the above described test, in which hyperlocomotion induced by low doses of dizocilpine is measured, was used.

PD-like rats = assay: Rotations in PD-like rats (6-hydroxydopamine lesion, levodopa-treated); type: in vivo; details: saline 108 ± 7
[5] = Plasma concentrations in mice; type: in vivo; details: after injection at a dose giving selective effects at the D3 receptor; n = 6

## COc1ccccc1N1CCN(CCCCNC(=O)c2ccc3ccccc3c2)CC1 [BP 897, 1-(4-(2-Naphthoylamino)butyl)-4-(2-methoxyphenyl)-1A-piperazine]
MK-801-treated mice
  Social investigations: restored
  escape behavior: completely normalized
[1]; BP 897 5.0 or 10 mg/kg orally
  maximal plasma concentration: 280 ± 110 nM
[1]; monkey, in vivo
  time of maximal plasma concentration: 60 min
[1]; monkey, plasma
  half-life: ~1 h
MPTP-intoxicated monkeys; calculated from areas under curve, BP 897 5.0 or 10 mg/kg orally with levodopa
  attenuation of LID: 66%
MPTP-intoxicated monkeys; from activity counts, threshold at 30% of the maximal activity, over 5 hr
  on-time duration: no difference with placebo
MPTP-intoxicated monkeys; one monkey, BP 897 12 times
  antidyskinetic effect along repeated administrations: did not show any obvious signs of decline
MPTP-intoxicated monkeys; tailored for each monkey, oral, with a fixed dose of levodopa, 5.0 (n = 1), 10 (n = 4)
  dose reaching a maximal effect on LID: 5.0 mg/kg and 10 mg/kg
MPTP-intoxicated monkeys; with levodopa
  locomotor activity (activity counts): undermine the levodopa-induced activity around the dyskinesia threshold
MPTP-intoxicated monkeys; without levodopa, two dyskinetic monkeys
  antiparkinson activity of the compound alone: no antiparkinson activity
Swiss mice [2]; acute administration on the 10th day after minipump implantation, clozapine 1 mg/kg, haloperidol 0.3 mg/kg, BP 897 1 mg/kg
  MK-801-induced hyperactivity: effect similar to that produced by clozapine or haloperidol
Swiss mice [2]; subchronic treatment twice a day for 4.5 days from day 6, BP 897 1 mg/kg, haloperidol 0.3 mg/kg, recorded at least 6 hours after last administration
  spontaneous hyperactivity: reversed
Swiss mice [2]; subchronic treatment twice a day for 4.5 days from day 6, methamphetamine 1 mg/kg, recorded at least 6 hours after last administration
  methamphetamine-induced hyperactivity: reversed
[3]
  locomotor response to MK-801: no longer able to inhibit
wild-type (D3R^+/+) mice; D3R^+/+ and D3R^-/- mice
  minimal active dose to reduce the hyperactivity induced by 0.3 mg/kg of MK-801: 3 mg/kg
wild-type (D3R^+/+) mice; compound 1 mg/kg, MK-801 […], D3R^+/+ mice
  MK-801-induced activity: inhibited
wild-type (D3R^+/+) mice; compound 1 mg/kg, experiment with D3R^+/+ and D3R^-/- mice
  spontaneous activity during the habituation phase: Neither of the drugs affected
Swiss mice [4]; MK-801 […], 60 min, compound i.p. 0.1, 0.3, 1 mg/kg (haloperidol 0.03, 0.1, 0.3 mg/kg), overall dose-response
  activity with MK-801: dose-dependently reduced
Swiss mice [4]; MK-801 […], level corresponds to saline-treated mice
  level to which locomotor activity in MK-801-treated mice was reduced: 30-40%
Swiss mice [4]; compound 0.3 mg/kg i.p., MK-801 […]
  MK-801-induced hyperactivity: significantly reduced
Swiss mice [4]; compound 1 mg/kg i.p., MK-801 […]
  MK-801-induced hyperactivity: significantly reduced
Swiss mice [4]; compound 1 mg/kg, MK-801 0.3 mg/kg, statistically non significant
  decrease of the activity in the presence of MK-801: 10-15%
Swiss mice [4]; habituation phase, 30 min starting 5 min after injection, all doses tested
  spontaneous activity: without any effect
PD-like rats; BP 897 0.1 mg/kg with levodopa 50 mg/kg, n = 8
  numbers of rotations: 89 ± 10
PD-like rats; BP 897 0.3 mg/kg with levodopa 50 mg/kg, n = 17
  numbers of rotations: 91 ± 12
PD-like rats; BP 897 1.0 mg/kg with levodopa 50 mg/kg, n = 13
  numbers of rotations: 68 ± 8
PD-like rats; BP 897 3.0 mg/kg with levodopa 50 mg/kg, n = 13
  numbers of rotations: 66 ± 12
[5]
  plasma concentration: 130 ± 14 nM
